Values after ≈ are worked out from the molar mass of the structure shown. Peptide text beside a SMILES is read from it.
Tests used:
[1] = tested on: EMR Staphylococcus aureus−15 NCTC 13616; format: cell-based; settings: NCTC 13616, 18 h
Description: (§1) The antibacterial activity of the peptides studied was assessed through a modified two-fold broth microdilution assay, as described before. Briefly, a two-fold dilution of peptide stock solutions was performed in either non-cation adjusted Müller-Hinton broth (MHB) or Tryptic Soy broth (TSB) in a 96-well polypropylene microtiter plate. Then, 100 µl of bacterial suspension (back diluted from overnight cultures to an A600 of 0.01) were added to 100 µl of peptide solution in each well of the plate. Growth and sterility controls were present for each experiment. The plate was incubated at 37 °C for 18 hours without shaking and the MIC was defined as the lowest concentration where no visible growth could be detected by measuring the absorbance (A600) on an Omega plate reader.

[2] = tested on: EMR Staphylococcus aureus-16 NCTC 13277; format: cell-based; settings: NCTC 13277, 18 h
Description: as §1

[3] = tested on: VR Enterococcus faecalis NCTC 12201; format: cell-based; settings: NCTC 12201, 18 h
Description: as §1

[4] = tested on: Pseudomonas aeruginosa NCTC 13437; format: cell-based; settings: NCTC 13437, 18 h
Description: as §1

[5] = tested on: VS Enterococcus faecalis NCTC 775; format: cell-based; settings: NCTC 775, 18 h
Description: as §1

[6] = tested on: Acinetobacter baumanii AYE; format: cell-based; settings: 18 h
Description: as §1

[7] = tested on: Pseudomonas aeruginosa PAO1; format: cell-based; settings: PAO1, 18 h
Description: as §1

[8] = tested on: MS Staphylococcus aureus NCTC 6571; format: cell-based; settings: NCTC 6571, 18 h
Description: as §1

[9] = tested on: E. coli cytoplasmic membrane; settings: cited from earlier work
Excerpt: Here we investigated whether a combined biophysical approach is capable of discriminating the species specific antibacterial mechanisms of action between three analogues of temporin B. Although structures for the three peptides solved in anionic SDS were noticeably different, when applied to model membranes, little difference in conformation could be discerned in the steady-state. To address this, we developed an approach using the Port-a-Patch® tool from Nanion Technologies (Munich, Germany) and correlated the findings obtained from patch-clamp analysis to the primary sequence and the biophys ...

[10] = tested on: Gram-negative bacteria; settings: cited from earlier work

Row | Compound | MIC, peptide concentration [1] [µg/mL] | MIC, peptide concentration [2] [µg/mL] | MIC, peptide concentration [7] [µg/mL] | further results
1 | CC[C@H](C)[C@H](NC(=O)[C@@H]1CCCN1C(=O)[C@H](CC(C)C)NC(=O)[C@H](CC(C)C)NC(=O)[C@H](CCCCN)NC(=O)[C@@H](N)CCCCN)C(=O)N[C@H](C(=O)N[C@@H](C)C(=O)N[C@@H](CC(N)=O)C(=O)N[C@@H](CC(C)C)C(=O)N[C@@H](CC(C)C)C(=O)N[C@@H](CCCCN)C(=O)N[C@@H](CO)C(=O)N[C@@H](CC(C)C)C(=O)N[C@@H](CC(C)C)C(N)=O)C(C)C [Temporin B KKG6A] (H-KKLLPIVANLLKSLL-NH2) | >128 | >128 | – | MIC, peptide concentration [3]: >128 µg/mL; MIC, peptide concentration [4]: >128 µg/mL; MIC, peptide concentration [5]: >128 µg/mL
2 | CC[C@H](C)[C@H](NC(=O)[C@@H]1CCCN1C(=O)[C@H](CC(C)C)NC(=O)[C@@H](N)Cc1ccccc1)C(=O)N[C@H](C(=O)NCC(=O)N[C@@H](CC(C)C)C(=O)N[C@@H](CC(C)C)C(=O)N[C@@H](CCCCN)C(=O)N[C@@H](CO)C(=O)N[C@@H](CC(C)C)C(=O)N[C@@H](CC(C)C)C(=O)N[C@@H](CCCCN)C(N)=O)C(C)C [Temporin B L1FK] (H-FLPIVGLLKSLLK-NH2) | 16 (≈ 11.1 µM) | 16 (≈ 11.1 µM) | 128 (≈ 88.9 µM) | MIC, peptide concentration [6]: 8 µg/mL (≈ 5.56 µM)
3 | CC[C@H](C)[C@H](NC(=O)[C@@H]1CCCN1C(=O)[C@H](CC(C)C)NC(=O)[C@@H](N)CC(C)C)C(=O)N[C@H](C(=O)NCC(=O)N[C@@H](CC(N)=O)C(=O)N[C@@H](CC(C)C)C(=O)N[C@@H](CC(C)C)C(=O)N[C@@H](CCCCN)C(=O)N[C@@H](CO)C(=O)N[C@@H](CC(C)C)C(=O)N[C@@H](CC(C)C)C(N)=O)C(C)C [Temporin B] (H-LLPIVGNLLKSLL-NH2) | – | 32 (≈ 23 µM) | >128 | MIC, peptide concentration [8]: 16 µg/mL (≈ 11.5 µM)
4 | LL-37: human antimicrobial peptide | – | – | – | Time to permeabilization of the E. coli cytoplasmic membrane and induction of oxidative stress [9]: around 25 minutes
5 | temporin L | – | – | – | MIC [10]: 2 to 20 µM

From article PMC6362004, “Minor sequence modifications in temporin B cause drastic changes in antibacterial potency and selectivity by fundamentally altering membrane activity” (Scientific Reports, 2019)
